Several values for one entry are separate records, joined by “and”; a condition that tells them apart may be missing. Identical values can stand only once.
Test system: Swiss mice, Sarcoma 180 sc, mean tumor weight T/C
Assay: NCI In Vivo Anticancer Drug Screen. Data for tumor model Sarcoma 180 (subcutaneous) in Swiss mice
Details: endpoint: mean tumor weight, higher = larger tumour
Method in brief: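 Antitumor activity is assessed in mice with transplantable tumors. Treated (T) and vehicle control (C) groups are compared on survival or tumor size.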

[1] = dose: 250.0 mg/kg/injection, schedule: Q01DX007 (ip), vehicle: carboxymethylcellulose (CMC)
[2] = dose: 375.0 mg/kg/injection, schedule: Q01DX007 (ip), vehicle: carboxymethylcellulose (CMC)

For `COC12C(COC(N)=O)C3=C(C(=O)C(C)=C(N)C3=O)N1CC1C2N1C` (centres undefined), the T/C (dose: 0.62 mg/kg/injection, schedule: Q#A X014 (ip), vehicle: carboxymethylcellulose (CMC)) was 62 % of control, the T/C (dose: 1.25 mg/kg/injection, schedule: Q#A X014 (ip), vehicle: carboxymethylcellulose (CMC)) was 123 % of control and the T/C (dose: 7.5 mg/kg/injection, schedule: Q#A X014 (ip), vehicle: carboxymethylcellulose (CMC)) was 65 % of control. For the same compound, the T/C (dose: 15.0 mg/kg/injection, schedule: Q#A X014 (ip), vehicle: carboxymethylcellulose (CMC)) was 6 % of control and 16 % of control and 25 % of control and the T/C (dose: 20.0 mg/kg/injection, schedule: Q#A X014 (ip), vehicle: carboxymethylcellulose (CMC)) was 2 % of control.

`O=C(O)C(O)C(F)(F)F` (centres undefined) was tested, and the T/C (dose: 15.5 mg/kg/injection, schedule: Q#A X014 (ip), vehicle: saline) was 111 % of control, the T/C (dose: 62.5 mg/kg/injection, schedule: Q#A X014 (ip), vehicle: saline) was 90 % of control and the T/C (dose: 125.0 mg/kg/injection, schedule: Q#A X014 (ip), vehicle: saline) was 123 % of control.

For `O=C(O)O.[Cd]`, the T/C (dose: 5.0 mg/kg/injection, schedule: Q01DX007 (ip), vehicle: carboxymethylcellulose (CMC)) was 69 % of control.

For `CC(=O)OCC(=O)C1(O)C(C)CC2C3C=C(C)C4=Cc5c(cnn5-c5ccccc5)CC4(C)C3C(O)CC21C` (centres undefined), the T/C (dose: 0.16 mg/kg/injection, schedule: Q01DX007 (sc), vehicle: steriod suspending solution) was 115 % of control, the T/C (dose: 0.25 mg/kg/injection, schedule: Q01DX007 (sc), vehicle: steriod suspending solution) was 39 % of control and 42 % of control and the T/C (dose: 8.0 mg/kg/injection, schedule: Q01DX007 (sc), vehicle: steriod suspending solution) was 15 % of control.

`O=C(NNC(=O)c1cccc2ccccc12)c1cc(Br)ccc1Br` was tested, and the T/C (dose: 222.0 mg/kg/injection, schedule: Q01DX007 (ip), vehicle: carboxymethylcellulose (CMC)) was 53 % of control, the T/C (dose: 333.0 mg/kg/injection, schedule: Q01DX007 (ip), vehicle: carboxymethylcellulose (CMC)) was 65 % of control and the T/C (dose: 500.0 mg/kg/injection, schedule: Q01DX007 (ip), vehicle: carboxymethylcellulose (CMC)) was 26 % of control. For the same compound, the T/C (dose: 750.0 mg/kg/injection, schedule: Q01DX007 (ip), vehicle: carboxymethylcellulose (CMC)) was 37 % of control.

With `CC(=O)[C@H]1CC[C@H]2[C@@H]3C[C@H](C)C4=CC(=O)CC[C@]4(C)[C@H]3C(=O)C[C@]12C` the T/C (dose: 25.0 mg/kg/injection, schedule: Q#A X014 (oral), vehicle: steriod suspending solution) was 72 % of control, the T/C (dose: 62.5 mg/kg/injection, schedule: Q#A X014 (oral), vehicle: steriod suspending solution) was 55 % of control and the T/C (dose: 110.0 mg/kg/injection, schedule: Q#A X014 (oral), vehicle: steriod suspending solution) was 86 % of control.

`O=C(CCCl)N1CCN(C(=O)CCCl)CC1` was tested, and the T/C (dose: 110.0 mg/kg/injection, schedule: Q#A X014 (ip), vehicle: methylcellulose (MC)) was 66 % of control and the T/C (dose: 167.5 mg/kg/injection, schedule: Q#A X014 (ip), vehicle: methylcellulose (MC)) was 54 % of control.

With `CCN(CC)CCOC(=O)c1ccc(N)cc1` the T/C (dose: 75.0 mg/kg/injection, schedule: Q#A X014 (ip), vehicle: saline) was 92 % of control.

`COc1cc(C(=O)CC2CCCCN2)ccc1O` (centres undefined) was tested, and the T/C (dose: 55.0 mg/kg/injection, schedule: Q01DX007 (ip), vehicle: saline) was 62 % of control, the T/C (dose: 83.0 mg/kg/injection, schedule: Q01DX007 (ip), vehicle: saline) was 120 % of control and the T/C (dose: 125.0 mg/kg/injection, schedule: Q01DX007 (ip), vehicle: saline) was 95 % of control and 96 % of control. For the same compound, the T/C (dose: 250.0 mg/kg/injection, schedule: Q01DX007 (ip), vehicle: saline) was 83 % of control.

For `CC1CCOS(=O)O1` (centres undefined), the T/C (dose: 6.25 mg/kg/injection, schedule: Q01DX007 (ip), vehicle: olive oil, sesame oil, peanut oil) was 67 % of control, the T/C (dose: 6.25 mg/kg/injection, schedule: Q01DX007 (ip), vehicle: propolene glycol) was 62 % of control and the T/C (dose: 6.25 mg/kg/injection, schedule: Q01DX007 (oral), vehicle: olive oil, sesame oil, peanut oil) was 81 % of control. For the same compound, the T/C (dose: 6.25 mg/kg/injection, schedule: Q01DX007 (sc), vehicle: olive oil, sesame oil, peanut oil) was 81 % of control, the T/C (dose: 12.5 mg/kg/injection, schedule: Q01DX007 (ip), vehicle: olive oil, sesame oil, peanut oil) was 85 % of control and the T/C (dose: 12.5 mg/kg/injection, schedule: Q01DX007 (ip), vehicle: propolene glycol) was 55 % of control. For the same compound, the T/C (dose: 12.5 mg/kg/injection, schedule: Q01DX007 (oral), vehicle: olive oil, sesame oil, peanut oil) was 106 % of control, the T/C (dose: 12.5 mg/kg/injection, schedule: Q01DX007 (oral), vehicle: propolene glycol) was 74 % of control and the T/C (dose: 12.5 mg/kg/injection, schedule: Q01DX007 (sc), vehicle: olive oil, sesame oil, peanut oil) was 97 % of control. The T/C (dose: 25.0 mg/kg/injection, schedule: Q01DX007 (ip), vehicle: olive oil, sesame oil, peanut oil) was 75 % of control, the T/C (dose: 25.0 mg/kg/injection, schedule: Q01DX007 (ip), vehicle: propolene glycol) was 62 % of control and the T/C (dose: 25.0 mg/kg/injection, schedule: Q01DX007 (oral), vehicle: olive oil, sesame oil, peanut oil) was 79 % of control. The T/C (dose: 25.0 mg/kg/injection, schedule: Q01DX007 (oral), vehicle: propolene glycol) was 80 % of control, the T/C (dose: 25.0 mg/kg/injection, schedule: Q01DX007 (sc), vehicle: olive oil, sesame oil, peanut oil) was 65 % of control and the T/C (dose: 36.0 mg/kg/injection, schedule: Q01DX007 (ip), vehicle: carboxymethylcellulose (CMC)) was 102 % of control. The T/C (dose: 50.0 mg/kg/injection, schedule: Q01DX007 (ip), vehicle: olive oil, sesame oil, peanut oil) was 48 % of control, the T/C (dose: 50.0 mg/kg/injection, schedule: Q01DX007 (ip), vehicle: propolene glycol) was 56 % of control and the T/C (dose: 50.0 mg/kg/injection, schedule: Q01DX007 (oral), vehicle: olive oil, sesame oil, peanut oil) was 71 % of control. For the same compound, the T/C (dose: 50.0 mg/kg/injection, schedule: Q01DX007 (oral), vehicle: propolene glycol) was 81 % of control, the T/C (dose: 50.0 mg/kg/injection, schedule: Q01DX007 (sc), vehicle: olive oil, sesame oil, peanut oil) was 66 % of control and the T/C (dose: 54.0 mg/kg/injection, schedule: Q01DX007 (ip), vehicle: carboxymethylcellulose (CMC)) was 84 % of control. The T/C (dose: 81.0 mg/kg/injection, schedule: Q01DX007 (ip), vehicle: carboxymethylcellulose (CMC)) was 57 % of control.

With `Cc1cc(C(=O)NN)c(C#N)c(=O)[nH]1` the T/C (dose: 111.0 mg/kg/injection, schedule: Q01DX007 (ip), vehicle: carboxymethylcellulose (CMC)) was 82 % of control, the T/C (dose: 166.0 mg/kg/injection, schedule: Q01DX007 (ip), vehicle: carboxymethylcellulose (CMC)) was 87 % of control and the T/C [1] was 30 % of control. The T/C [2] was 46 % of control.

For `CN(CC(=O)O)C(=N)N`, the T/C (dose: 1500.0 mg/kg/injection, schedule: Q#A X014 (ip), vehicle: water) was 92 % of control and the T/C (dose: 2500.0 mg/kg/injection, schedule: Q#A X014 (ip), vehicle: water) was 74 % of control.

With `COc1ccc2c(c1)CC[C@@H]1[C@@H]2CC[C@]2(C)[C@H](O)[C@H](O)C[C@@H]12` the T/C (dose: 0.5 mg/kg/injection, schedule: Q01DX007 (sc), vehicle: steriod suspending solution) was 117 % of control, the T/C (dose: 1.25 mg/kg/injection, schedule: Q01DX007 (sc), vehicle: steriod suspending solution) was 81 % of control and the T/C (dose: 2.5 mg/kg/injection, schedule: Q01DX007 (sc), vehicle: steriod suspending solution) was 66 % of control and 90 % of control. The T/C (dose: 5.0 mg/kg/injection, schedule: Q01DX007 (sc), vehicle: steriod suspending solution) was 60 % of control and the T/C (dose: 10.0 mg/kg/injection, schedule: Q01DX007 (sc), vehicle: steriod suspending solution) was 61 % of control.

With `Cc1ccc(NC(C(=O)c2ccccc2)c2ccccc2)cc1` (centres undefined) the T/C (dose: 150.0 mg/kg/injection, schedule: Q01DX007 (ip), vehicle: saline) was 39 % of control and the T/C (dose: 225.0 mg/kg/injection, schedule: Q01DX007 (ip), vehicle: saline) was 20 % of control.

`Nc1nc(SCc2ccccn2)c2ncn(C3OC(CO)C(O)C3O)c2n1` (centres undefined) was tested, and the T/C (dose: 11.1 mg/kg/injection, schedule: Q#A X014 (ip), vehicle: methylcellulose (MC)) was 52 % of control, the T/C (dose: 16.65 mg/kg/injection, schedule: Q#A X014 (ip), vehicle: methylcellulose (MC)) was 48 % of control and the T/C (dose: 25.0 mg/kg/injection, schedule: Q#A X014 (ip), vehicle: methylcellulose (MC)) was 37 % of control. For the same compound, the T/C (dose: 37.5 mg/kg/injection, schedule: Q#A X014 (ip), vehicle: methylcellulose (MC)) was 41 % of control.

In the case of `CCCCN(CCCC)C(=O)c1[nH]cnc1N`, the T/C (dose: 100.0 mg/kg/injection, schedule: Q01DX007 (ip), vehicle: carboxymethylcellulose (CMC)) is reported as 55 % of control, the T/C (dose: 200.0 mg/kg/injection, schedule: Q01DX007 (ip), vehicle: carboxymethylcellulose (CMC)) is reported as 58 % of control and the T/C [1] is reported as 87 % of control. For the same compound, the T/C [2] was 57 % of control.

Source: PubChem BioAssay AID342 (DTP/NCI, 2004)
